From patent US8598084B2, “Synergistic herbicide/insecticide composition containing certain pyridine carboxylic acids and certain insecticides” (priority 2010, dated 2013)
Values joined by “and” are separate entries in the source; they are usually repeats but may differ in a detail not shown here. Equal values may be shown once.

What was measured:
Format in all cases: in vivo
[1] = test system: Canada thistle (Cirsium arvense L; CIRAR); test: Postemergence herbicidal activity of mixtures, greenhouse, visual injury vs control; conditions: 17.5 g/ha alone
Procedure: (§1) Evaluation of Postemergence Herbicidal Activity of Mixtures in Cereal Crops
(§2) Seeds of the desired test plant species were planted in Sun Gro MetroMix® 306 planting mixture, which typically has a pH of 6.0 to 6.8 and an organic matter content of about 30 percent, in plastic pots with a surface area of 103.2 square centimeters (cm^2). When required to ensure good germination and healthy plants, a fungicide treatment and/or other chemical or physical treatment was applied. The plants were grown for 7-36 days (d) in a greenhouse with an approximate 14 hour (h) photoperiod which was maintained at about 18° C. during the day and 17° C. during the night. Nutrients and water were added on a regular basis and supplemental lighting was provided with overhead metal halide 1000-Watt lamps as necessary. The plants were employed for testing when they reached the second or third true leaf stage.
(§3) Treatments consisted of an insecticidal compound (as listed in Tables 1 through 18) and the cereal herbicide, 4-amino-3-chloro-6-(4-chloro-2-fluoro-3-methoxyphenyl)pyridine-2-carboxylic acid, alone and in combination. Weighed amounts of esters (methyl) or salts (triethylammonium, TEA) of 4-amino-3-chloro-6-(4-chloro-2-fluoro-3-methoxyphenyl)pyridine-2-carboxylic acid (Compound I) were placed in 25 milliliter (mL) glass vials and dissolved in a volume of 97:3 volume per volume (v/v) acetone/dimethyl sulfoxide (DMSO) to obtain 4.5 milligrams active ingredient per mL (mg ai/mL) concentrated solutions. […] The concentrated solutions of Compound I were diluted to 1.5 mg ai/mL with the addition of 2 volumes of an aqueous mixture containing acetone, water, isopropyl alcohol, DMSO, Agri-dex crop oil concentrate, and Triton® X-77 surfactant in a 64.7:26.0:6.7:2.0:0.7:0.01 v/v ratio. A dilution solution was prepared by mixing 1 volume of 97:3 v/v acetone/DMSO and 2 volumes of an aqueous mixture containing acetone, water, isopropyl alcohol, DMSO, Agri-dex crop oil concentrate, and Triton® X-77 surfactant in a 64.7:26.0:6.7:2.0:0.7:0.01 v/v ratio. Compound requirements are based upon a 12 mL application volume at a rate of 187 liters per hectare (L/ha). The concentrated solutions of the cereal insecticides were prepared following the same procedure. Weighed amounts of insecticide were placed in 25 milliliter (mL) glass vials and dissolved in a volume of 97:3 v/v acetone/DMSO to obtain concentrated insecticide solutions. The concentrated solutions of the safener were prepared following the same procedure. Weighed amounts of safener were placed in 25 mL glass vials and dissolved in a volume of 97:3 v/v acetone/DMSO to obtain concentrated safener solutions. The concentrated solutions were diluted to 0.75 mg/mL with an aqueous mixture of 1.5% v/v of Agri-dex crop oil concentrate.
(§4) Spray solutions of the cereal herbicide and the insecticidal compound mixtures were prepared by adding the concentrated solutions to the appropriate amount of dilution solution to form 12 mL spray solution with active ingredients in combinations. Spray solutions of the cereal herbicide, herbicide safener and the insecticidal compound mixtures were prepared by adding the concentrated solutions to the appropriate amount of dilution solution to form 12 mL spray solution with active ingredients in combinations. Formulated compounds were applied to the plant material with an overhead Mandel track sprayer equipped with 8002E nozzles calibrated to deliver 187 L/ha over an application area of 0.503 square meters (m^2) at a spray height of 18 inches […] above average plant canopy. Control plants were sprayed in the same manner with the solvent blank.
(§5) The treated plants and control plants were placed in a greenhouse as described above and watered by sub-irrigation to prevent wash-off of the test compounds. […]

[2] = test system: Russian thistle (Salsola iberica L; SASKR); test: as above
Procedure: as §1, §2, §3, §4, §5

[3] = test system: bird's-eye speedwell (Veronica persica L; VERPE); test: as above; conditions: Veronica persica, post-emergence, read-out: Ob (observed injury);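 also: visual score 0 means no injury and 100 means complete kill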
Procedure: as §1, §2, §3, §4, §5

[4] = test system: kochia (Kochia scoparia L; KCHSC); test: as above
Procedure: as §1, §2, §3, §4, §5

[5] = test system: redroot pigweed (Amaranthus retroflexus L; AMARE); test: as above; conditions: 17.5 g/ha alone
Procedure: as §1, §2, §3, §4, §5

[6] = test system: scented mayweed (Matricaria chamomila L; MATCH); test: as above
Procedure: as §1, §2, §3, §4, §5

[7] = test system: wild pansy (Viola tricolor L; VIOTR); test: as above
Procedure: as §1, §2, §3, §4, §5

[8] = test system: barley (Hordeum vulgare L; HORVS); test: Postemergence crop injury and safening, greenhouse, visual injury vs control
Procedure: as §1, §2, §3, §4, §5

[9] = test system: wheat (Triticum aestivum L; TRZAS); test: as above
Procedure: as §1, §2, §3, §4, §5

[10] = application rate g/ha: Compound I methyl ester 35, Malathion 0, Cloquintocet 0

COC(=O)c1nc(-c2ccc(Cl)c(OC)c2F)cc(N)c1Cl [Compound I Methyl ester, 4-amino-3-chloro-6-(4-chloro-2-fluoro-3-methoxyphenyl)pyridine-2-carboxylic acid methyl ester]
Ob (observed injury) [1]: 62%
pest or weed control at 8.75 g/ha ([2]; Salsola tragus, post-emergence, 8.75 g/ha alone, read-out: Ob (observed injury)): 71%
pest or weed control at 17.5 g/ha ([2]; Salsola tragus, post-emergence, 17.5 g/ha alone, read-out: Ob (observed injury)): 81%
pest or weed control at 35 g/ha ([2]; Salsola tragus, post-emergence, 35 g/ha alone, read-out: Ob (observed injury)): 89%
SASKR Ob [2, 10]: 89
pest or weed control at 8.75 g/ha ([3]; 8.75 g/ha alone): 36%
pest or weed control at 17.5 g/ha ([3]; 17.5 g/ha alone): 47%
pest or weed control at 35 g/ha ([3]; 35 g/ha alone): 73%
pest or weed control at 8.75 g/ha ([4]; Bassia scoparia, post-emergence, 8.75 g/ha alone, read-out: Ob (observed injury)): 79%
pest or weed control at 17.5 g/ha ([4]; Bassia scoparia, post-emergence, 17.5 g/ha alone, read-out: Ob (observed injury)): 88%
pest or weed control at 35 g/ha ([4]; Bassia scoparia, post-emergence, 35 g/ha alone, read-out: Ob (observed injury)): 97%
KCHSC Ob [4, 10]: 97
Ob (observed injury) [5]: 90%
pest or weed control at 8.75 g/ha ([6]; Matricaria, post-emergence, 8.75 g/ha alone, read-out: Ob (observed injury)): 67%
pest or weed control at 17.5 g/ha ([6]; Matricaria, post-emergence, 17.5 g/ha alone, read-out: Ob (observed injury)): 80%
pest or weed control at 35 g/ha ([6]; Matricaria, post-emergence, 35 g/ha alone, read-out: Ob (observed injury)): 88%
MATCH Ob [6, 10]: 88
pest or weed control at 8.75 g/ha ([7]; Viola tricolor, post-emergence, 8.75 g/ha alone, read-out: Ob (observed injury)): 36%
pest or weed control at 17.5 g/ha ([7]; Viola tricolor, post-emergence, 17.5 g/ha alone, read-out: Ob (observed injury)): 44%
pest or weed control at 35 g/ha ([7]; Viola tricolor, post-emergence, 35 g/ha alone, read-out: Ob (observed injury)): 56%
VIOTR Ob [7, 10]: 56
Ob (observed injury) ([8]; 35 g/ha alone, crop injury): 28% and 32%
HORVS Ob [8, 10]: 32
Ob (observed injury) ([9]; 35 g/ha alone, crop injury): 39% and 41%
TRZAS Ob [9, 10]: 41
